Numbered stars: 1 amine (or outer) side, 2 acyl side, 3 side chain; on linkers, the order of the positions; unused ones are H or OH. Square brackets hold non-standard residues; d marks the D form. Peptide text beside a SMILES is read from it. * marks the point of attachment. X1 = N[C@@H](CC(=O)[*:2])[C@H](Cc1ccccc1)N[*:1]; Isovaleryl = CC(C)CC(=O)*
Key:
rat knee joint = assay: Carrageenan (CAR)-induced knee joint inflammation: swelling and thermal hyperalgesia (Hargreaves test); format: in vivo; settings: intra-articular administration 30 minutes before CAR
Procedure: In order to induce an inflammation reaction, a carrageenan solution (CAR, 1%, 50 μl) was injected intra-articularly on one side into a rat knee joint. The uninjected side was used for control purposes. Six animals per group were used. The […] was determined by means of a micrometer screw (medial-lateral on the knee joint), and the thermal hyperalgesia was determined by means of a directed infrared light source by the Hargreaves method (Hargreaves et al., 1988) on the sole of the foot. Since the site of inflammation (knee joint) is different from the site of measurement (paw sole), use is made here of the term secondary thermal hyperalgesia, the mechanism of which is of importance for the discovery of effective analgesics.
Experimental description of thermal hyperalgesia (Hargreaves test): the experimental animal is placed in a plastic chamber on a quartz sheet. Before testing, the experimental animal is firstly given about 5-15 minutes time to familiarise itself with the environment. As soon as the experimental animal no longer moves so frequently after the familiarisation phase (end of the exploration phase), the infrared light source, whose focus is in the plane of the glass bottom, is positioned directly beneath the rear paw to be stimulated. An experiment run is then started by pressing the button: infrared light results in an increase in the skin temperature of the rear paw. The experiment is terminated either by the experimental animal raising the rear paw (as an expression of the pain threshold being reached) or by automatic switching-off of the infrared light source when a prespecified maximum temperature has been reached. Light reflected by the paw is recorded as long as the experimental animal sits still. Withdrawal of the paw interrupts this reflection, after which the infrared light source is switched off and the time from switching on to switching off is recorded. The instrument is calibrated in such a way that the infrared light source increases the skin temperature to about 45 degrees Celsius in 10 s (Hargreaves et al. 1988). […]

[1] = biological target: cathepsin D isolated from the human liver (Homo sapiens (Human), UniProt P07339); assay: In-vitro fluorescence assay for identification of cathepsin D inhibitors; format: biochemical; settings: cathepsin D 1.4 nM, pH 5.5; read-out: CatD assay IC50-
Chain of cathepsin D isolated from the human liver (P07339 65-161): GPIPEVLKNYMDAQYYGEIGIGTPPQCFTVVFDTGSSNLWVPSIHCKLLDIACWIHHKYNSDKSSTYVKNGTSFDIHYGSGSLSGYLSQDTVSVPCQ
Chain of cathepsin D isolated from the human liver (P07339 169-412): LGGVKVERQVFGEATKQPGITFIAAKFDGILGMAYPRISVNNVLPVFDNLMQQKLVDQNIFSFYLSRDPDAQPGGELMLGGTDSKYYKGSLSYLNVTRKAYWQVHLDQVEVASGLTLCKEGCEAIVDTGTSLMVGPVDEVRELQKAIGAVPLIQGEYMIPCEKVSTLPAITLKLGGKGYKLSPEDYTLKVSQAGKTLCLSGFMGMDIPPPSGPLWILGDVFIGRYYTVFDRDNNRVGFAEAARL
Procedure, shortened: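 A FRET-quenched MCA/Dnp peptide (5 μM final) was cleaved by 1.4 nM liver-derived human cathepsin D at pH 5.5 in sodium acetate buffer containing CHAPS and 1.25% DMSO. Enzyme and compound dilutions were first incubated 10 min.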

recombinant human renin = recombinant human renin (Homo sapiens (Human), UniProt P00797); assay: In-vitro fluorescence assay for identification of renin-inhibitory activity; format: biochemical; settings: recombinant human renin 10 nM, pH 7.2; read-out: Renin selectivity IC50
Chain of recombinant human renin (P00797 67-406): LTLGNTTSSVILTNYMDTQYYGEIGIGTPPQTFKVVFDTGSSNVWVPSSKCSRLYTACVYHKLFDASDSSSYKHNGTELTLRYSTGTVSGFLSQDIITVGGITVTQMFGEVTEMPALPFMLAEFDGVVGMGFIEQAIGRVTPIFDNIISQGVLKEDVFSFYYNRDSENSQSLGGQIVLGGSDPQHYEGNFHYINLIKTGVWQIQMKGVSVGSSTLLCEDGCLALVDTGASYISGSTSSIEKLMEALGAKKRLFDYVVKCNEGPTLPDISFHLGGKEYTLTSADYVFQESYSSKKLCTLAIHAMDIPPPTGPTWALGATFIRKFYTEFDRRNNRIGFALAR
Procedure, shortened: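 Recombinant human renin (10 nM) pre-incubated 15 min at RT with serially diluted compound in 50 mM Mops pH 7.2, 1.5% DMSO, 0.1% Igepal, 0.5% BSA; Edans/Dabcyl FRET peptide (5 µM final) added, 60 min at 37 °C; cleavage read as fluorescence increase (ex 340/em 495 nm) against no-compound wells.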

[2] = Stability in bovine synovial fluid; format: in vitro ADME; settings: 1 μM, 48 h at 37° C.
Procedure: In order to check the stability of individual compounds, a pool of four different bovine synovial fluids is mixed. To this end, about 1 ml per SF is used. The mixture is prepared directly in a 5 ml glass vessel. The SFs are mixed thoroughly, but carefully. No air bubbles or foam should form. To this end, a vortex unit is used at the lowest speed. The compounds to be tested are tested in an initial concentration (unless required otherwise) of 1 μM. After addition of the substance, the batch is again mixed thoroughly and carefully. For visual monitoring, all SF batches are photographed, and the pictures are filed in the eLabBio file for the corresponding experiment. […] The batches are incubated in the incubator for 48 h at 37° C. and 7.5% CO2.
The sampling is carried out after the pre-agreed times (unless required otherwise, see below). 200 μl of the SF are removed from the mixture per time and transferred directly into a 0.5 ml “low-binding” Eppendorf vessel. “Low-binding” Eppendorf vessels are used in order to minimise interaction of the substances with the plastic of the vessels. 200 μl of acetonitrile have already been introduced into the Eppendorf vessel, so that a 1+1 mixture of the SF forms thereafter. This simplifies the subsequent analysis, but precipitation of protein may occur immediately after addition of the SF. This should be noted on the protocol. The 0 h sample is taken immediately after addition of the substance. This corresponds to the 100% value in the stability calculation. Ideally, the concentration employed should be retrieved here. The samples can be frozen at −20° C. • 0 h • 6 h • 24 h • 48 h
The negative control used is SF without substance. The positive control used is SF with 1 μM of substance. This corresponds to the 0 h value and thus 100% stability.
The concentrations measured (ng/ml) are plotted against the time in a graph (GraphPad Prism®). The percentage stability of the substance is determined here. The 100% value used is the initial value in the SF at time 0 h. The data are stored in eLabBio under the respective experiment number and reported in the MSR database (as percent stability after the corresponding incubation times).

bovine explants = assay: Cartilage explant assay (pH-induced cartilage degradation, GAG liberation); format: cell-based; settings: Bos taurus, 72 h, pH 5.5, 3 days
Description: In order to investigate the effect of potential cathepsin D inhibitors on cartilage degradation, a pH-induced model based on bovine explants is used. The pH of the medium in which the explants are cultivated is matched here to the pathophysiological pH of an arthrotic knee. This pH is pH 5.5. In this ex vivo model, potential cathepsin D inhibitors are subsequently investigated for their action with respect to stopping of the cartilage degradation process. If the cartilage is destroyed, glycosaminoglycans (GAGs) are released into the cell culture supernatant. The amount of GAGs liberated can be determined quantitatively with the aid of DMMB (dimethylmethylene blue hydrochloride). If sulfated GAGs are detected using dimethylmethylene blue hydrochloride, the decrease in the absorption at 633 nm is utilised. […] In order to determine the concentration, a calibration line is also recorded using chondroitin sulfate.
The bovine explants are firstly prepared. The induction of the cartilage degradation is carried out in 96-multiwell plates. One explant is cultivated per well. In each case, 200 μl of DMEM (incubation medium pH 5.5) without FBS+30 μg/ml of ascorbic acid are added. Thus negative control, explants (n=4) are incubated at pH 7.4 (without FBS). This control is not included in the calculation of the data, but instead ensures that the pH change has the desired effect on the liberation of GAG. At this point, the substances to be tested are added. No preincubation of the explants is carried out. The explants are cultivated with the corresponding substances for 3 days in the incubator at 37° C. and 7.5% CO2.
In order to investigate the effect of cathepsin D inhibitors on the liberation of GAG (glycosaminoglycan), the substances are employed in the desired concentration and cultivated for 3 days. The compounds to be tested are tested in a first experiment in a concentration of 1 μM and 1% of DMSO. Substances which have an effect of >50% on the liberation of GAG (this corresponds to <50% of the control in the Assay Explorer) are tested in the next experiment at 100 nM and 1% of DMSO. Substances which have an effect of >50% on the liberation of GAG under these conditions (this corresponds to <50% of the control in the Assay Explorer) are tested in a concentration/effect relationship. The compounds here are investigated in the following concentrations: 30 μM, 10 μM, 3 μM, 1 μM, […], 0.1 μM, 0.03 μM, 0.01 μM.
The positive control used is pepstatin A with a concentration of 0.01 μM. The assay window is defined by the control (pH 5.5), defined as 0% effect, and the control pH 5.5+0.01 μM pepstatin A, defined as 100% effect. After incubation for 3 days, the cell culture supernatants are collected and stored at −20° C. or measured directly. The amount of liberated GAG is measured photometrically.
The effect (1 value) of the respective substance in % based on the positive control (pH 5.5+0.01 μM pepstatin A) and the negative control (pH 5.5) is reported for concentrations of 1 μM and 100 nM. The value represents the average of 4 replicants. In the determination of a concentration/effect relationship, an IC50 value is reported to the database (Assay Explorer).
The cell culture supernatants (200 μl) are either measured directly or stored at −20° C. In order to ensure an accurate determination of the concentration (μg/ml of GAG in the supernatant) of GAG, the measurement values must be located in the linear region of the standard curve. In order to ensure this, various dilutions are routinely introduced (1/5, 1/10, 1/20, 1/40). The dilutions are prepared with medium and introduced automatically (Hamilton) into a 384-well plate (15 μl). 60 μl of DMMB solution are likewise added automatically (or using a multichannel pipette). A rapid colour reaction occurs, which is subsequently measured at 633 nm using a plate reader (for example Envision).

Row | SMILES | IC50 [1] | Stability in synovial fluid [2] | CAR-induced swelling of joint (rat knee joint) | also measured
1 | CC[C@H](C)[C@H](NC(=O)C[C@H](N)[C@H](Cc1ccccc1)NC(=O)[C@@H](NC(=O)[C@H](CC(C)C)NC(=O)CC(C)C)C(C)C)C(=O)N[C@H](C(=O)O)C(C)C [Compound 23, (S)-2-[(2S,3S)-2-((3S,4S)-3-Amino-4-{(S)-3-methyl-2-[(S)-4-methyl-2-(3-methylbutyrylamino)pentanoylamino]-butyrylamino}-5-phenylpentanoylamino)-3-methyl-pentanoylamino]-3-methylbutyric acid] (Isovaleryl-LV[X1]IV-OH) | 50 nM |  | no influence on inflammatory swelling | thermal hyperalgesia (rat knee joint; Hargreaves test): exerts an anti-hyperalgesic action
2 | CC[C@H](C)[C@H](NC(=O)C[C@H](N)[C@H](Cc1ccccc1)NC(=O)[C@@H](NC(=O)[C@H](CC(C)C)NC(=O)CC(C)C)C(C)C)C(=O)NCCc1ccccc1 [Compound 24, N-((1S,2S)-2-Methyl-1-phenethyl-carbamoylbutyl)-(S)-3-amino-4-{(S)-(S)-3-methyl-2-[(S)-4-methyl-2-(3-methylbutyryl-amino)pentanoylamino]butyrylamino}-5-phenylpentanamide] |  | stable |  | IC50 (recombinant human renin): > 30000 nM
3 | C[C@]12C=CC(=O)C=C1CC[C@H]1[C@@H]3C[C@@H](O)[C@](O)(C(=O)CO)[C@@]3(C)C[C@H](O)[C@@]12F [TAC, Triamcinolone, reference compound] |  |  | capable of reducing the CAR-induced swelling | 

The next lines start with results.

Row | IC50 [1] | Stability in synovial fluid [2] | SMILES | CAR-induced swelling of joint (rat knee joint) | also measured
4 | 46 nM | stable | CC[C@H](C)[C@H](NC(=O)C[C@H](N)[C@H](Cc1ccccc1)NC(=O)[C@@H](NC(=O)[C@H](CC(C)C)NC(=O)CC(C)C)C(C)C)C(=O)Nc1ccn(C)n1 [Compound 27, N-[(1S,2S)-2-Methyl-1-(1-methyl-1H-pyrazol-3-ylcarbamoyl)butyl]-(S)-3-amino-4-{(S)-(S)-3-methyl-2-[(S)-4-methyl-2-(3-methylbutyrylamino)pentanoylamino]-butyrylamino}-5-phenylpentanamide] |  | 
5 |  | stable | CC[C@H](C)[C@H](NC(=O)C[C@H](N)[C@H](Cc1ccccc1)NC(=O)[C@@H](NC(=O)[C@H](Cc1ccccc1)NC(=O)CC(C)C)C(C)C)C(=O)N[C@H](C(=O)O)C(C)C [Compound 33, (S)-2-[(2S,3S)-2-((3S,4S)-3-Amino-4-{(S)-3-methyl-2-[(S)-2-(3-methylbutyrylamino)-3-phenylpropionylamino]-1-oxobutyl-amino}-5-phenylpentanoylamino)-3-methylpentanoylamino]-3-methyl-butyric acid] (Isovaleryl-FV[X1]IV-OH) |  | IC50 (bovine explants): 2.64 nM
